# Data published in patent publication US20240252508A1, “Novel glucose uptake inhibitors for use in the treatment of cancer” (NOVELYEAST BV, priority 2021, published 2024).
# Read-outs that look alike come from different tables or passages of the source.
# What was measured:
# wild type yeast cells = assay: General toxicity: growth of wild type yeast cells; assay type: cell-based, S. cerevisiae; details: 100 μM
# Description: Maximal growth rates were determined after 2 days of growth in Complete Synthetic liquid medium.
# Growth curves were made by measuring OD595 in a 96-well plate using the Multiskan™ FC Microplate Photometer (Thermo Fisher Scientific). Typically, for tps1Δ rescue experiments (FIG. 2b-e; FIG. 4a), cells were (pre)grown in Complete Synthetic medium containing 2% galactose.
# Compounds were always added 10 min prior to glucose addition to ensure maximal interaction between the cells and compounds. Cells originating from the preculture were harvested, washed in medium without sugar, after which they were resuspended to an OD of 0.1 in 200 μL of the appropriate medium. At least three technical replicates were included per condition. OD595 was measured at 30° C. every 30 min with a 10-min shaking interval.
# [1] = test system: A549 lung adenocarcinoma cells; assay: 2-deoxyglucose uptake in A549 cells; assay type: cell-based, human
# Description: Zero-trans glucose uptake in A549 cells was approximated by measuring the uptake of [1,2-^3H]2-deoxyglucose. For this purpose, A549 cells were pregrown in RPMI medium containing 10 mM glucose in a 24-well plate to a cell density of around 100,000 cells/well. Prior to adding radioactive label, cells were gently washed twice in Krebs-Ringer-HEPES buffer (50 mM HEPES pH 7.4, 137 mM NaCl, 4.7 mM KCl, […], 1.3 mM MgSO4 and 0.1% w/v BSA) at 30° C. to remove any residual sugar. RPMI medium without sugar containing the compound intended for treatment, was added to the cells for 15 min at 37° C. to allow adequate interaction of the cells with the compound.
# The uptake measurement was initiated by adding an equal volume of medium containing radiolabeled 2DG. After 3-4 min, medium was aspirated and cells were gently washed three times with ice-cold Krebs-Ringer-HEPES buffer. Cells were lysed by adding 200 μL of ice-cold 0.1 M NaOH solution and incubating the plate for 10 min at 37° C. Cell lysates were transferred to scintillation vials for subsequent scintillation counting. For blank measurements, cells were incubated with 50 μM Cytochalasin B prior to the uptake measurement.
# wild type cells = assay: Zero-trans glucose uptake in wild type yeast cells; assay type: cell-based, S. cerevisiae; details: for Ki: Dixon plot analysis
# Description: Zero-trans uptake of radioactively labeled [U-^14C]glucose, [U-^14C]fructose or [U-^14C]galactose by S. cerevisiae cells was determined in accordance with previous studies^44,66. Cells were grown on different carbon sources depending on the experiment. For measuring glucose uptake activity in the tps1Δ and tps1Δ hxtA strains (FIG. 1b,c), cells were grown on YP medium containing 3% glycerol (measurement of 10s). Typically, for compound characterization and kinetic studies in wild type and tps1Δ strains, cells were (pre)grown on Complete Synthetic medium supplemented with 2% galactose (measurement of 10s). In the experiments on the influence of hexokinase activity on the sugar uptake rate, the measurement duration was shortened to 5s and cells were always grown on YP medium containing 3% glycerol and 2% ethanol. After harvesting, cells were washed twice with ice-cold 25 mM MES-buffer pH 6, and resuspended in their respective medium without sugar to a final concentration of 45 mg (wet weight)/mL. The amount of added tracer was estimated to give a response close to at least 1000 counts per min in order to adequately counter background noise. Cells were first preincubated for 10 min at 30° C. with the compound to acclimate the cells to the temperature and to allow adequate interaction with the compound prior to uptake. Next, hexose sugar was mixed with the cell suspension, which was then incubated for 5 or 10 s, depending on the experiment, after which the cells were rapidly filtered over a glass microfiber filter (Whatman GF/C) and washed three times with ice-cold dH2O. The loaded filter was transferred to a scintillation vial containing 3 mL liquid scintillation cocktail (Ultima-Flo M, Perkin Elmer) and counted using the Hidex 300 SL. Three blank measurements per strain were typically included to account for background signal, for which the cells were first quenched before adding the radioactive label.
# [2] = test system: KMS-12-PE multiple myeloma cells; assay: Steady-state glucose consumption and lactate production in KMS-12-PE cells; assay type: cell-based, human; details: 25 μM, 1 mM glucose, 8 h
# Description: The influence of WBC compounds on the steady-state glucose consumption rate was studied in the A549 adenocarcinoma and KMS-12-PE multiple myeloma cell lines. As such, different parameters needed to be optimized depending on whether cells were adherent or in suspension. As such, A549 cells were incubated at 125,000 cells/well in a 24-well plate in 300 μL RPMI medium for 8 h. For the KMS-12-PE cell line, 100,000 cells/well were incubated in 100 μL RPMI medium in a 96-well plate for 8 h. Medium was collected, spun down and HPLC-analyzed for measuring glucose and lactate levels. Metabolite levels were corrected for cell number, which always varied little over the span of 8 h. For every condition, at least 4 technical repeats were included.
smiles,measurement,setting,value
Cc1nc(Sc2nnc3n2CCCCC3)c2c(-c3cccs3)csc2n1 [WBC-A],Growth of wild type yeast cells on glucose (2%) and on 3% glycerol+2% ethanol,wild type yeast cells,did not cause any growth inhibition at all
same,Ki,"[1]; Dixon plot analysis, read-out: Ki (=K′i), 2-deoxyglucose uptake in A549 cells",52.8 µM
same,Type of inhibition of 2-deoxyglucose uptake in A549 cells,[1]; Lineweaver-Burk plot analysis,noncompetitive
same,Ki,wild type cells,9.04 µM
same,Ki,"wild type cells; printed K′, read-out: K′i, glucose uptake, wild type cells",36.6 µM
same,"Type of inhibition of glucose uptake, wild type cells",wild type cells; Lineweaver-Burk plot analysis,mixed type
same,Glucose consumption and lactate production in KMS-12-PE cells,[2],did not cause inhibition
